Measurements as given in patent US12521393B2, “Cytotoxicity targeting chimeras for CCR2-expressing cells” (GLAXOSMITHKLINE INTELLECTUAL PROPERTY DEVELOPMENT LIMITED, priority 2021, dated 2026).

Assays:
[1] = target: anti-cotinine antibody (SEQ ID NO: 11/12, rabbit variable region with human IgG1 Fc DE mutation); test: SPR binding of anti-cotinine antibody to ARM compounds, Biacore T200, 37° C. (Example 202); settings: SPR Biacore T200, 37° C., pH 7.4, antibody SEQ ID NO: 11/12 captured on protein A; Kd in molar
Summary of the method: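 Run at 37 °C in 10 mM HEPES pH 7.4, 150 mM NaCl, 0.005% P20, 1% DMSO, with compounds titrated from 200 nM (five 3-fold steps) over protein A–captured antibody. A 1:1 kinetic model on double-referenced data gave rate constants, Kd as koff/kon and residence time 1/koff; results as pKd, run-averaged.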

[2] = target: human alpha1 nicotinic acetylcholine (nACh) receptor (Homo sapiens, UniProt P02708); test: Nicotinic acetylcholine receptor antagonism assay, IONFlux automated patch clamp (Example 203); assay type: cell-based; settings: for IC50: antagonism of ACh-stimulated human alpha1 nAChR current, patch clamp; for Emax at 100 µM: maximum percentage antagonism at maximum concentration tested 100 μM
Summary of the method: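 Cells expressing human α1 nAChR were incubated with a compound dose response (top 10 μM or 100 μM), then stimulated with ACh (10 mM), and peak current was read by automated patch clamp. % inhibition was taken against ACh-alone control, corrected for vehicle and run-down, and fit non-linearly for IC50; runs were averaged.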

Chain of human alpha1 nicotinic acetylcholine (nACh) receptor (P02708 21-457): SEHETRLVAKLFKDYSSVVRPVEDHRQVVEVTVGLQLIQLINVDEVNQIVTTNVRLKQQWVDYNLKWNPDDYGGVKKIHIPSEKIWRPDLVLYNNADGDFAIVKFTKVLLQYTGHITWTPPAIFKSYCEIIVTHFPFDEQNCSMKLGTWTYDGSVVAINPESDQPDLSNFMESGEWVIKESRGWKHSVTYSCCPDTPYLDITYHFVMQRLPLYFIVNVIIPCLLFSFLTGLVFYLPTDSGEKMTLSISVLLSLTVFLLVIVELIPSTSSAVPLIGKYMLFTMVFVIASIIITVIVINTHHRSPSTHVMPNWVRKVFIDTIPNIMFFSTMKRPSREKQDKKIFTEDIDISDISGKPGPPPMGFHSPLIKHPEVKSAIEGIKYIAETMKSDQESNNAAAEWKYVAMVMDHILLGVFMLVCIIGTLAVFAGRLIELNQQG
Chain of human alpha1 nicotinic acetylcholine (nACh) receptor (P11230 24-501 partner): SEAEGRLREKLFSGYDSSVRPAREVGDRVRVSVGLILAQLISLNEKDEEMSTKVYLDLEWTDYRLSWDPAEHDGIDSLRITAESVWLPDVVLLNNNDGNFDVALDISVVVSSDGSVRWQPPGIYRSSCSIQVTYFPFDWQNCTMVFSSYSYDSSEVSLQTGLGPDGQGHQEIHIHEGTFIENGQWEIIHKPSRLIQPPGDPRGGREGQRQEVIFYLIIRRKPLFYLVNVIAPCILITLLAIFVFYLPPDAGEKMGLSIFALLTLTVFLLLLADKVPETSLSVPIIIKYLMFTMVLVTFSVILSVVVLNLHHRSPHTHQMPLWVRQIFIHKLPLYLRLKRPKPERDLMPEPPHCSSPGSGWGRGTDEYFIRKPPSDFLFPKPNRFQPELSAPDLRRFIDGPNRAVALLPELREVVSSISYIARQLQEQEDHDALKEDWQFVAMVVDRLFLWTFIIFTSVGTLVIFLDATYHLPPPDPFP
Chain of human alpha1 nicotinic acetylcholine (nACh) receptor (Q07001 22-517 partner): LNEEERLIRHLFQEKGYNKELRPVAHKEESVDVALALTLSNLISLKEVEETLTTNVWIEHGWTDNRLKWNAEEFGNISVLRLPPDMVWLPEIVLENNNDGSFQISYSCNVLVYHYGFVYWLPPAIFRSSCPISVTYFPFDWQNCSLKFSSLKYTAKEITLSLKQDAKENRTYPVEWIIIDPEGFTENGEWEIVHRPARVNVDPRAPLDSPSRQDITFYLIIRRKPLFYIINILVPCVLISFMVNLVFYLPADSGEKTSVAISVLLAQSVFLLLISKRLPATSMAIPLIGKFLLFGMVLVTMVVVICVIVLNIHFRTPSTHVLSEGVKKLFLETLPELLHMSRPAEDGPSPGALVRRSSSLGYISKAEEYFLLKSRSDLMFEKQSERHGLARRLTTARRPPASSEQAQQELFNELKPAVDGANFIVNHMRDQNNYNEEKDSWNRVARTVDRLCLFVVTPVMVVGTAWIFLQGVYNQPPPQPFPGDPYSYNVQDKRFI

SMILES	pKd of Antibody for ARM Compound of Formula (I) [1]	IC50 [2]	Emax at 100 µM ([2]; read-out: Maximum Response)	Emax at 33.33 µM ([2]; maximum percentage antagonism at maximum concentration tested 33.33 μM, read-out: Maximum Response)	Emax at 11.11 µM ([2]; maximum percentage antagonism at maximum concentration tested 11.11 μM, read-out: Maximum Response)
CCN1C(=O)C[C@H](C(=O)NCCOCCOCCOCCC(=O)N[C@H]2CC[C@@H](C(=O)N[C@@H]3C[C@H](NC(C)(C)C)CC[C@@H]3N3CC[C@H](Nc4ncnc5ccc(C(F)(F)F)cc45)C3=O)CC2)[C@H]1c1cccnc1 [Example 35, (2S,3S)-N-(2-(2-(2-(3-(((1S,4s)-4-(((1R,2S,5R)-5-(tert-butylamino)-2-((S)-2-oxo-3-((6-(trifluoromethyl)quinazolin-4-yl)amino)pyrrolidin-1-yl)cyclohexyl)carbamoyl)cyclohexyl)amino)-3-oxopropoxy)ethoxy)ethoxy)ethyl)-1-ethyl-5-oxo-2-(pyridin-3-yl)pyrrolidine-3-carboxamide]	9.785	89.2 µM	52.3%	–	–
CC(C)N(C)[C@@H]1CC[C@H](N2CC[C@H](Nc3ncnc4ccc(C(F)(F)F)cc34)C2=O)[C@H](NC(=O)C2CCC(NC(=O)CCOCCNC(=O)CCOCCNC(=O)[C@H]3CC(=O)N(C)[C@@H]3c3cccnc3)CC2)C1 (stereo partly drawn) [Example 48, (2S,3S)-N-(2-(3-((2-(3-(((1R,4r)-4-(((1R,2S,5R)-5-(Isopropyl(methyl)amino)-2-((S)-2-oxo-3-((6-(trifluoromethyl)quinazolin-4-yl)amino)pyrrolidin-1-yl)cyclohexyl)carbamoyl)cyclohexyl)amino)-3-oxopropoxy)ethyl)amino)-3-oxopropoxy)ethyl)-1-methyl-5-oxo-2-(pyridin-3-yl)pyrrolidine-3-carboxamide]	8.975	31.8 µM	77%	–	–
CC(C)N(C)[C@@H]1CC[C@H](N2CC[C@H](Nc3ncnc4ccc(C(F)(F)F)cc34)C2=O)[C@H](NC(=O)[C@H]2C[C@@H](NC(=O)CCOCCOCCNC(=O)CCNC(=O)[C@H]3CC(=O)N(C)[C@@H]3c3cccnc3)C2)C1 [Example 49, (2S,3S)-N-(3-((2-(2-(3-(((1S,3s)-3-(((1R,2S,5R)-5-(Isopropyl(methyl)amino)-2-((S)-2-oxo-3-((6-(trifluoromethyl)quinazolin-4-yl)amino)pyrrolidin-1-yl)cyclohexyl)carbamoyl)cyclobutyl)amino)-3-oxopropoxy)ethoxy)ethyl)amino)-3-oxopropyl)-1-methyl-5-oxo-2-(pyridin-3-yl)pyrrolidine-3-carboxamide]	9.191	80.3 µM	56.7%	–	–
CC(C)N(C)[C@@H]1CC[C@H](N2CC[C@H](Nc3ncnc4ccc(C(F)(F)F)cc34)C2=O)[C@H](NC(=O)[C@H]2CC[C@@H](NC(=O)CCCO[C@H]3CC[C@H](NC(=O)CCNC(=O)[C@@H]4CC(=O)N(C)[C@H]4c4cccnc4)CC3)CC2)C1 [Example 52, (2S,3S)-N-(3-(((1R,4S)-4-(4-(((1S,4S)-4-(((1R,2S,5R)-5-(Isopropyl(methyl)amino)-2-((S)-2-oxo-3-((6-(trifluoromethyl)quinazolin-4-yl)amino)pyrrolidin-1-yl)cyclohexyl)carbamoyl)cyclohexyl)amino)-4-oxobutoxy)cyclohexyl)amino)-3-oxopropyl)-1-methyl-5-oxo-2-(pyridin-3-yl)pyrrolidine-3-carboxamide]	9.2545	33.3 µM	–	8.3%	–
CC(C)N(C)[C@@H]1CC[C@H](N2CC[C@H](Nc3ncnc4ccc(C(F)(F)F)cc34)C2=O)[C@H](NC(=O)[C@H]2CC[C@H](NC(=O)CCOC[C@H]3CC[C@H](COCCNC(=O)[C@H]4CC(=O)N(C)[C@@H]4c4cccnc4)CC3)CC2)C1 [Example 53, (2S,3S)-N-(2-(((1R,4S)-4-((3-(((1R,4R)-4-(((1R,2S,5R)-5-(Isopropyl(methyl)amino)-2-((S)-2-oxo-3-((6-(trifluoromethyl)quinazolin-4-yl)amino)pyrrolidin-1-yl)cyclohexyl)carbamoyl)cyclohexyl)amino)-3-oxopropoxy)methyl)cyclohexyl)methoxy)ethyl)-1-methyl-5-oxo-2-(pyridin-3-yl)pyrrolidine-3-carboxamide]	9.531	≥ 11.1 µM	–	–	10%
